Results reported in patent US20030171218A1, “Substituted 3-heteroaryl(amino- or oxy)pyrrolidin-2-ones, their preparation and use as herbicides or plant growth regulators” (priority 2001, published 2003).

Tests used:
[1] = tested on: weed plants such as Digitaria sanguinalis, Echinochloa crus-galli, Setaria faberi, Setaria viridis, Sorghum halepense, Abutilon theophrasti, Amaranthum …; assay: Pre-emergence effect on weeds (greenhouse pot test); type: in vivo, monocotyledonous and dicotyledonous weed plants; details: application rate of 1 kg or less of active substance per hectare; scored visually after 3 to 4 weeks by comparison with untreated controls
Description: Seeds or rhizome pieces of monocotyledonous and dicotyledonous weed plants are placed in sandy loam soil in plastic pots and covered with soil. The compounds according to the invention which are formulated in the form of wettable powders or emulsion concentrates are then applied to the surface of the soil cover in the form of aqueous suspensions or emulsions at an application rate of 600 to 800 l of water/ha (converted), in various dosages.
After the treatment, the pots are placed in a greenhouse and kept under good growth conditions for the weeds. After the test plants have emerged, the damage to the plants or the negative effect on the emergence is scored visually after a test period of 3 to 4 weeks by comparison with untreated controls. As shown by the test results, compounds according to the invention have good herbicidal pre-emergence activity against a broad spectrum of weed grasses and broad-leafed weeds.

[2] = tested on: harmful plants such as Digitaria sanguinalis, Echinochloa crus-galli, Setaria faberi, Setaria viridis, Sorghum halepense, Abutilon theophrasti, Amaranthum …; assay: Post-emergence effect on weeds (greenhouse pot test); type: in vivo, monocotyledonous and dicotyledonous weeds; details: application rate of 1 kg and less of active substance per hectare; treated at three-leaf stage; scored visually after about 3 to 4 weeks by comparison with untreated controls
Description: Seeds or rhizome pieces of monocotyledonous and dicotyledonous weeds are placed in sandy loam soil in plastic pots, covered with soil and grown in a greenhouse under good growth conditions. Three weeks after sowing, the test plants are treated at the three-leaf stage. The compounds according to the invention which were formulated as wettable powders or emulsion concentrates are sprayed, at various dosages, onto the green parts of the plants at an application rate of 600 to 800 l of water/ha (converted). After the test plants have remained in the greenhouse for about 3 to 4 weeks under optimum growth conditions, the effect of the preparations is scored visually by comparison with untreated controls. The agents according to the invention also have good herbicidal activity post-emergence against a broad spectrum of economically important weed grasses and broad-leafed weeds.

Row | Compound | herbicidal activity pre-emergence [1] | herbicidal activity post-emergence [2]
1 | Cc1cc(C)cc(N2CCC(N(C)c3nc(N)nc(C(C)F)n3)C2=O)c1 (stereo not drawn) [Example A65] | very good herbicidal activity | very good herbicidal activity
2 | CC(F)c1nc(N)nc(N(C)C2CCN(c3cccc(Cl)c3)C2=O)n1 (stereo not drawn) [Example A66] | very good herbicidal activity | very good herbicidal activity
3 | Cc1cc(N2CCC(N(C)c3nc(N)nc(C(C)F)n3)C2=O)ccc1F (stereo not drawn) [Example A67] | very good herbicidal activity | very good herbicidal activity
4 | CC(F)c1nc(N)nc(N(C)C2CCN(c3cccc(F)c3)C2=O)n1 (stereo not drawn) [Example A69] | very good herbicidal activity | very good herbicidal activity
5 | CC(C)c1nc(N)nc(N(C)C2CCN(c3cccc(C(F)(F)F)c3)C2=O)n1 (stereo not drawn) [Example A70] | very good herbicidal activity | very good herbicidal activity
6 | Cc1cc(C)cc(N2CCC(N(C)c3nc(N)nc(C(C)C)n3)C2=O)c1 (stereo not drawn) [Example A71] | very good herbicidal activity | very good herbicidal activity
7 | CC(C)c1nc(N)nc(N(C)C2CCN(c3cccc(Cl)c3)C2=O)n1 (stereo not drawn) [Example A72] | very good herbicidal activity | very good herbicidal activity
8 | Cc1cc(N2CCC(N(C)c3nc(N)nc(C(C)C)n3)C2=O)ccc1F (stereo not drawn) [Example A73] | very good herbicidal activity | very good herbicidal activity
9 | Cc1cccc(N2CCC(N(C)c3nc(N)nc(C(C)C)n3)C2=O)c1 (stereo not drawn) [Example A74] | very good herbicidal activity | very good herbicidal activity
10 | CC(C)c1nc(N)nc(N(C)C2CCN(c3cccc(OC(F)(F)F)c3)C2=O)n1 (stereo not drawn) [Example A75] | very good herbicidal activity | very good herbicidal activity
11 | CC(C)c1nc(N)nc(N(C)C2CCN(c3cccc(F)c3)C2=O)n1 (stereo not drawn) [Example A76] | very good herbicidal activity | very good herbicidal activity
12 | COc1cccc(N2CCC(N(C)c3nc(N)nc(C(C)(C)F)n3)C2=O)c1 (stereo not drawn) [Example A77] | very good herbicidal activity | very good herbicidal activity
13 | Cc1cc(C)cc(N2CCC(N(C)c3nc(N)nc(C(C)(C)F)n3)C2=O)c1 (stereo not drawn) [Example A78] | very good herbicidal activity | very good herbicidal activity
14 | CN(c1nc(N)nc(C(C)(C)F)n1)C1CCN(c2cccc(Cl)c2)C1=O (stereo not drawn) [Example A79] | very good herbicidal activity | very good herbicidal activity
15 | CN(c1nc(N)nc(C(C)(C)F)n1)C1CCN(c2cccc(OC(F)(F)F)c2)C1=O (stereo not drawn) [Example A80] | very good herbicidal activity | very good herbicidal activity
16 | CN(c1nc(N)nc(C(C)(C)F)n1)C1CCN(c2cccc(C(F)(F)F)c2)C1=O (stereo not drawn) [Example A81] | very good herbicidal activity | very good herbicidal activity
17 | CN(c1nc(N)nc(C(C)(C)F)n1)C1CCN(c2cccc(F)c2)C1=O (stereo not drawn) [Example A82] | very good herbicidal activity | very good herbicidal activity
18 | Cc1cc(N2CCC(N(C)c3nc(N)nc(C(C)(C)F)n3)C2=O)ccc1F (stereo not drawn) [Example A83] | very good herbicidal activity | very good herbicidal activity
19 | Cc1cccc(N2CCC(N(C)c3nc(N)nc(C(C)(C)F)n3)C2=O)c1 (stereo not drawn) [Example A84] | very good herbicidal activity | very good herbicidal activity
20 | Cc1cccc(N2CCC(Nc3nc(N)nc(C(C)(C)F)n3)C2)c1 (stereo not drawn) [Example E7] | very good herbicidal activity | very good herbicidal activity
21 | Cc1cccc(N2CCC(Nc3nc(N)nc(C(C)F)n3)C2)c1 (stereo not drawn) [Example E8] | very good herbicidal activity | very good herbicidal activity

Row | Compound | herbicidal activity pre-emergence [1] | herbicidal activity post-emergence [2]
22 | Cc1cccc(N2CCC(Nc3nc(N)nc(C(C)C)n3)C2)c1 (stereo not drawn) [Example E9] | very good herbicidal activity | very good herbicidal activity
23 | Cc1cc(N2CCC(Nc3nc(N)nc(C(C)(C)F)n3)C2)ccc1F (stereo not drawn) [Example E10] | very good herbicidal activity | very good herbicidal activity
24 | Cc1cc(N2CCC(Nc3nc(N)nc(C(C)F)n3)C2)ccc1F (stereo not drawn) [Example E11] | very good herbicidal activity | very good herbicidal activity
25 | Cc1cc(N2CCC(Nc3nc(N)nc(C(C)C)n3)C2)ccc1F (stereo not drawn) [Example E12] | very good herbicidal activity | very good herbicidal activity
26 | CC(C)(F)c1nc(N)nc(NC2CCN(c3cccc(F)c3)C2)n1 (stereo not drawn) [Example E13] | very good herbicidal activity | very good herbicidal activity
27 | CC(F)c1nc(N)nc(NC2CCN(c3cccc(F)c3)C2)n1 (stereo not drawn) [Example E14] | very good herbicidal activity | very good herbicidal activity
28 | CC(C)c1nc(N)nc(NC2CCN(c3cccc(F)c3)C2)n1 (stereo not drawn) [Example E15] | very good herbicidal activity | very good herbicidal activity
29 | CC(C)(F)c1nc(N)nc(NC2CCN(c3cccc(Cl)c3)C2)n1 (stereo not drawn) [Example E16] | very good herbicidal activity | very good herbicidal activity
30 | CC(F)c1nc(N)nc(NC2CCN(c3cccc(Cl)c3)C2)n1 (stereo not drawn) [Example E17] | very good herbicidal activity | very good herbicidal activity
31 | CC(C)c1nc(N)nc(NC2CCN(c3cccc(Cl)c3)C2)n1 (stereo not drawn) [Example E18] | very good herbicidal activity | very good herbicidal activity
32 | CC(C)(F)c1nc(N)nc(NC2CCN(c3cccc(C(F)(F)F)c3)C2)n1 (stereo not drawn) [Example E19] | very good herbicidal activity | very good herbicidal activity
33 | CC(F)c1nc(N)nc(NC2CCN(c3cccc(C(F)(F)F)c3)C2)n1 (stereo not drawn) [Example E20] | very good herbicidal activity | very good herbicidal activity
34 | CC(C)c1nc(N)nc(NC2CCN(c3cccc(C(F)(F)F)c3)C2)n1 (stereo not drawn) [Example E21] | very good herbicidal activity | very good herbicidal activity
35 | CC(C)(F)c1nc(N)nc(NC2CCN(c3cccc(OC(F)(F)F)c3)C2)n1 (stereo not drawn) [Example E22] | very good herbicidal activity | very good herbicidal activity
36 | CC(F)c1nc(N)nc(NC2CCN(c3cccc(OC(F)(F)F)c3)C2)n1 (stereo not drawn) [Example E23] | very good herbicidal activity | very good herbicidal activity
37 | CC(C)c1nc(N)nc(NC2CCN(c3cccc(OC(F)(F)F)c3)C2)n1 (stereo not drawn) [Example E24] | very good herbicidal activity | very good herbicidal activity
38 | Cc1cc(C)cc(N2CCC(Nc3nc(N)nc(C(C)(C)F)n3)C2)c1 (stereo not drawn) [Example E25] | very good herbicidal activity | very good herbicidal activity
39 | Cc1cc(C)cc(N2CCC(Nc3nc(N)nc(C(C)F)n3)C2)c1 (stereo not drawn) [Example E26] | very good herbicidal activity | very good herbicidal activity
40 | Cc1cc(C)cc(N2CCC(Nc3nc(N)nc(C(C)C)n3)C2)c1 (stereo not drawn) [Example E27] | very good herbicidal activity | very good herbicidal activity
41 | CN(c1nc(N)nc(C(C)(C)F)n1)C1CCN(c2cccc(C(F)(F)F)c2)C1 (stereo not drawn) [Example E48] | very good herbicidal activity | very good herbicidal activity
42 | CN(c1nc(N)nc(C(C)(C)F)n1)C1CCN(c2cccc(OC(F)(F)F)c2)C1 (stereo not drawn) [Example E49] | very good herbicidal activity | very good herbicidal activity
